The values that follow come from patent publication US4656247A, “Effective hormonal peptides: D-3-QA1 6-LHRH” (Board of Regents, The University of Texas System, priority 1985, dated 1987).

In one assay the test system is 21 day old female rats. As to the kind of experiment: In vivo assay in rats for release of LH and FSH. The settings on record: for Serum FFSH ng/ml ± SEM / Serum LH ng/ml ± SEM: Table VI, sampling time not given; for LH ng/ml Serum ± SEM: Table VII; for LH ± SEM ng/ml serum / FSH ± SEM ng/ml serum: Table XI, mean 5-6. On the set-up: species or system rat. The procedure: In vivo rat assay performed by a modification of the method of Bowers, C. Y. et al. Endocrinology, 106, 674 (1980). 21 day old female rats were injected sc with saline or peptide. Blood samples for the RIAs of LH and FSH were collected at +15, +60, +120, or +180 minutes. (Table VI-XI).

In assay [1] the test system is advanced prostatic carcinoma. The settings on record: subcutaneous, daily; cited from earlier work.
Another assay relates to men. The settings on record: chronic administration; cited from earlier work.
Assay [2] is described as follows: Peptides tested biologically (summary statement). The settings on record: when tested biologically.
Assay [3] concerns pituitary cells from 21 day old rats. As to the kind of experiment: In vitro pituitary incubate assay (release of LH and FSH). Format: cell-based, rat. Here is the method:
The data in Tables IV and V are from the in vitro assay of the peptides with the pituitary incubate. This assay measures the release of LH and FSH in an in vitro system with pituitary cells from 21 day old rats. See, Bowers, C. Y. et al. on the inhibitory effects of leutinizing hormone releasing hormone analogs. Endocrinology, 106: 674 (1980).

[4] abbreviates: 150 ng sc, first column (+ 2 hrs as in upper part).
[5] abbreviates: 150 ng sc, second column (+3 hrs as in upper part).

As for “LHRH: leutinizing hormone releasing hormone, the peptide hormone which exists naturally in the hypothalamus”, the “Serum FFSH ng/ml ± SEM” value was 475 ± 43 ng/mL in the assay on 21 day old female rats (15 ng/rat sc), 572 ± 68 ng/mL with 21 day old female rats (50 ng/rat sc) and 839 ± 73 ng/mL with 21 day old female rats (150 ng/rat sc). In addition, the “Serum LH ng/ml ± SEM” value with 21 day old female rats (15 ng/rat sc) amounted to 1.3 ± 0.2 ng/mL; with 21 day old female rats (50 ng/rat sc) it was 3.2 ± 0.3 ng/mL; with 21 day old female rats (150 ng/rat sc) it was 12 ± 3 ng/mL. Besides, the “LH ng/ml Serum ± SEM” value in the assay on 21 day old female rats (± 15 min) turned out to be 49 ± 10 ng/mL; in the assay with 21 day old female rats (± 60 min), 5.5 ± 0.9 ng/mL. The “LH ± SEM ng/ml serum” value in the assay with 21 day old female rats (150 ng sc, + 2 hrs) was “.18 ± 0.07 ng/ml serum”; with 21 day old female rats (150 ng sc, +3 hrs) it was 0.66 ± 0.46 ng/ml serum. The “FSH ± SEM ng/ml serum” value with 21 day old female rats (setting [4]) is reported as 337 ± 20 ng/ml serum; in the assay on 21 day old female rats (setting [5]), 487 ± 72 ng/ml serum. Moreover, the “release of LH” value in the assay on 21 day old female rats (at 15 ng) was “inactive”.

As to `CC(C)C[C@H](NC(=O)[C@@H](Cc1c[nH]c2ccccc12)NC(=O)[C@H](Cc1ccc(O)cc1)NC(=O)[C@H](CO)NC(=O)[C@H](Cc1c[nH]c2ccccc12)NC(=O)[C@H](Cc1c[nH]cn1)NC(=O)[C@@H]1CCC(=O)N1)C(=O)N[C@@H](CCCNC(=N)N)C(=O)N1CCC[C@H]1C(=O)NCC(N)=O` [D-Trp^6 -LHRH, pyroGluHis-Trp-Ser-Tyr-D-Trp-Leu-Arg-Pro-Gly-NH2], in assay [1], the “clinical effect in patients with more advanced prostatic disease” value is recorded as “pain from bone metastases was relieved”. In assay [1], the “clinical effect in patients with urinary obstruction” value is recorded as “noticeable clinical improvement”. The “effect on Leydig cell function and serum steroid levels” value in the assay with men is “suppression of Leydig cell function and decreases in serum levels of testosterone, dihydrotestosterone and estradiol”. Moreover, the “LH ng/ml Serum ± SEM” value in the assay with 21 day old female rats (10 mg/rat sc, ± 60 min) turned out to be 31 ± 6 ng/mL; with 21 day old female rats (± 15 min), 51 ± 10 ng/mL; with 21 day old female rats (± 60 min) it was 259 ± 34 ng/mL. Further, the “LH ± SEM ng/ml serum” value in the assay with 21 day old female rats (150 ng sc, + 2 hrs) was determined as 230 ± 41 ng/ml serum; with 21 day old female rats (150 ng sc, +3 hrs), 117 ± 9 ng/ml serum. For the same compound, the figures for the “FSH ± SEM ng/ml serum” value with 21 day old female rats (setting [4]) and in the assay on 21 day old female rats (setting [5]) were 2332 ± 388 ng/ml serum and 2065 ± 151 ng/ml serum, respectively.

`CCNC(=O)[C@@H]1CCCN1C(=O)[C@H](CCCNC(=N)N)NC(=O)[C@H](CC(C)C)NC(=O)[C@@H](Cc1cccnc1)NC(=O)[C@H](Cc1ccc(O)cc1)NC(=O)[C@H](CO)NC(=O)[C@H](Cc1c[nH]c2ccccc12)NC(=O)[C@H](Cc1c[nH]cn1)NC(=O)[C@@H]1CCC(=O)N1` [Peptide 21436, pryoGlu-His-Trp-Ser-Tyr-D-3-Pal-Leu-Arg-Pro-NHC2 H5]: the “LH ± SEM ng/ml serum” value worked out at 237 ± 52 ng/ml serum in the assay on 21 day old female rats (150 ng sc, + 2 hrs) and 106 ± 13 ng/ml serum in the assay on 21 day old female rats (150 ng sc, +3 hrs). Further, the “FSH ± SEM ng/ml serum” value with 21 day old female rats (setting [4]) is listed as 2415 ± 361 ng/ml serum; in the assay with 21 day old female rats (setting [5]), 2205 ± 298 ng/ml serum.

Regarding `CCNC(=O)[C@@H]1CCCN1C(=O)[C@H](CCCNC(=N)N)NC(=O)[C@H](CC(C)C)NC(=O)[C@@H](Cc1c[nH]c2ccccc12)NC(=O)[C@H](Cc1ccc(O)cc1)NC(=O)[C@H](CO)NC(=O)[C@H](Cc1c[nH]c2ccccc12)NC(=O)[C@H](Cc1c[nH]cn1)NC(=O)[C@@H]1CCC(=O)N1` [D-Trp^6 Pro^9 Net-LHRH, pyroGluHis-Trp-Ser-Tyr-D-Trp-Leu-Arg-Pro-EA**], the “LH ng/ml Serum ± SEM” value was 59 ± 10 ng/mL with 21 day old female rats (± 15 min) and 228 ± 41 ng/mL in the assay on 21 day old female rats (± 60 min). Besides, the “LH ± SEM ng/ml serum” value in the assay with 21 day old female rats (150 ng sc, + 2 hrs) came to 184 ± 29 ng/ml serum; in the assay with 21 day old female rats (150 ng sc, +3 hrs) it was 103 ± 9 ng/ml serum. The “FSH ± SEM ng/ml serum” value in the assay on 21 day old female rats (setting [4]) amounted to 2260 ± 294 ng/ml serum; with 21 day old female rats (setting [5]), 1763 ± 148 ng/ml serum.

With `CC(C)C[C@H](NC(=O)[C@@H](Cc1cccnc1)NC(=O)[C@H](Cc1ccc(O)cc1)NC(=O)[C@H](CO)NC(=O)[C@H](Cc1c[nH]c2ccccc12)NC(=O)[C@H](Cc1c[nH]cn1)NC(=O)[C@@H]1CCC(=O)N1)C(=O)N[C@@H](CCCNC(=N)N)C(=O)N1CCC[C@H]1C(=O)NCC(N)=O` [D-Pal^6 -LHRH, pyroGlu-His-Trp-Ser-Tyr-D-3-Pal-Leu-Arg-Pro-GlyNH2], the “potency compared with LHRH” value in assay [2] is recorded as “significantly more potent than LHRH itself”. In addition, the “activity for the release of FSH (D-Pal^6 vs D-Qal^6, words)” value in assay [3] (at 0.1 ng, Table IV) is “same essential equivalents”. For the same compound, the “activity for the release of LH (D-Pal^6 vs D-Qal^6, words)” value in assay [3] (at 0.1 ng, Table IV) is “essentially equivalent in activity”. In addition, the “potency compared with D-Trp^6 -LHRH, inferred via D-Qal^6 -LHRH” value in assay [3] (inference from Table IV and comparable assays) was “essentially equipotent”. The “Serum LH ng/ml ± SEM” value with 21 day old female rats (5 ng/rat sc) came out at 7 ± 1 ng/mL. Also, the “LH ± SEM ng/ml serum” value in the assay with 21 day old female rats (50 ng sc, + 2 hrs) was 108 ± 17 ng/ml serum; in the assay on 21 day old female rats (50 ng sc, +3 hrs) it was 20 ± 2.3 ng/ml serum; in the assay with 21 day old female rats (150 ng sc, + 2 hrs), 144 ± 27 ng/ml serum; in the assay on 21 day old female rats (150 ng sc, +3 hrs), 38 ± 6.3 ng/ml serum. In addition, the “FSH ± SEM ng/ml serum” value in the assay with 21 day old female rats (50 ng sc, first column (+ 2 hrs as in upper part)) was determined as 1727 ± 222 ng/ml serum; in the assay with 21 day old female rats (50 ng sc, second column (+3 hrs as in upper part)), 1312 ± 163 ng/ml serum; with 21 day old female rats (setting [4]) it was 2362 ± 293 ng/ml serum; with 21 day old female rats (setting [5]), 1617 ± 143 ng/ml serum. Besides, in the assay with 21 day old female rats (dosage of 5 ng), the “release of LH” value was “significantly released LH”. Further, the “LH released relative to LHRH, corrected for the level of LH before addition of the peptides” value in the assay with 21 day old female rats (dosage of 50 ng) is given as about 50 times.
